# Assay results reported in patent publication US20060069132A1, “Azolecarboxamide herbicides” (priority 2004, published 2006).
# Where two headings read alike, the source gives them in different places.
# Experiments:
# johnsongrass = assay: Test C pre-/postemergence herbicide test; assay type: in vivo, Sorghum halepense
# Summary of the method: (§1)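 Visual injury scores run from 0 (no effect) to 100 (complete control), assessed relative to untreated controls 12 to 14 days after treatment in the greenhouse. Chemicals were formulated in a non-phytotoxic solvent mixture with surfactant and applied to soil after planting or to emerged plants at the 1- to 4-leaf stage.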
# large crabgrass [1] = assay: Test C pre-/postemergence herbicide test; assay type: in vivo, Digitaria sanguinalis
# Summary of the method: as §1
# eastern black nightshade = assay: Test C pre-/postemergence herbicide test; assay type: in vivo, Solanum ptycanthum; conditions: preemergence; for Plant response rating (0 = no effect, 100 = complete control), Nightshade: 125 g ai/ha
# Excerpt: Seeds of plant species selected from bermudagrass (Cynodon dactylon (L.) Pers.), Surinam grass (Urochloa decumbens (Staph) R. D. Webster, previously named Brachiaria decumbens Stapf), cocklebur (Xanthium strumarium L.), corn (Zea mays L.), large crabgrass (Digitaria sanguinalis (L.) Scop.), woolly cupgrass (Eriochloa villosa (Thunb.) Kunth), giant foxtail (Setaria faberi Herrm.), goosegrass (Eleusine indica (L.) Gaertn.), johnsongrass (Sorghum halepense (L.) Pers.), kochia (Kochia scoparia (L.) Schrad.), lambsquarters (Chenopodium album L.), morningglory (Ipomoea coccinea L.), eastern black nightshade (Solanum ptycanthum Dunal), yellow nutsedge (Cyperus esculentus L.), pigweed (Amaranthus retroflexus L.), common ragweed (Ambrosia elatior L.), soybean (Glycine max (L.) Merr.), common (oilseed) sunflower (Helianthus annuus L.) and velvetleaf (Abutilon theophrasti Medik.) were planted and treated preemergence with test chemicals formulated in a non-phytotoxic solvent mixture which included a surfactant.
# At the same time, plants selected from these crop and weed species and also winter barley (Hordeum vulgare L.), blackgrass (Alopecurus myosuroides Huds.), canarygrass (Phalaris minor Retz.), chickweed (Stellaria media (L.) Vill.), downy bromegrass (Bromus tectorum L.), green foxtail (Setaria viridis (L.) Beauv.), Italian ryegrass (Lolium multiflorum Lam.), wheat (Triticum aestivum L.), wild oat (Avenafatua L.) and windgrass (Apera spica-venti (L.) Beauv.) were treated with postemergence applications of some of the test chemicals formulated in the same manner. Plants ranged in height from 2 to 18 cm (1- to 4-leaf stage) for postemergence treatments. Plant species in the flooded paddy test consisted of rice (Oryza sativa), smallflower umbrella sedge (Cyperus difformis L.), ducksalad (Heteranthera limosa (Sw.) Willd.) and barnyardgrass (Echinochloa crus-galli (L.) Beauv.) grown to the 2-leaf stage for testing. Treated plants and controls were maintained in a greenhouse for 12 to 14 days, after which time all species were compared to controls and visually evaluated. Plant response ratings, summarized in Table C, are based on a scale of 0 to 100 where 0 is no effect and 100 is complete control. A dash (-) response means no test result.
# corn = assay: Test C pre-/postemergence herbicide test; assay type: in vivo, Zea mays
# Summary of the method: as §1
# rice = assay: Test B pre-/postemergence herbicide test; assay type: in vivo, Oryza sativa; conditions: preemergence; for Plant response rating, Rice: 500 g ai/ha
# Summary of the method: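 Herbicidal effect was judged by eye on a 0–100 scale after plants stood 13 to 15 days in the greenhouse following pre- or postemergence treatment with surfactant-containing formulations.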
# large crabgrass [2] = assay: Test A pre-/postemergence herbicide test; assay type: in vivo, Digitaria sanguinalis; conditions: for pest or weed control at 500 g/ha / pest or weed control at 2000 g/ha: Digitaria sanguinalis, 240 h
# Summary of the method: (§2)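 Pre: seeded sandy loam, directed soil spray, compound in non-phytotoxic solvent + surfactant. Post: 1–2-leaf plants (2–10 cm), sprayed to runoff. Greenhouse ~10 d; visual injury vs untreated, 0–100 scale.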
# redroot pigweed = assay: Test A pre-/postemergence herbicide test; assay type: in vivo, Amaranthus retroflexus; conditions: for pest or weed control at 500 g/ha / pest or weed control at 2000 g/ha: Amaranthus retroflexus, 240 h
# Summary of the method: as §2
# [3] = 62 g ai/ha, preemergence, scale 0 to 100
# [4] = 250 g ai/ha, scale 0-100, preemergence
# [5] = 500 g ai/ha, scale 0 to 100 (0 no effect, 100 complete control), visual, 12 to 14 days, preemergence
# [6] = 500 g ai/ha, scale 0 to 100 (0 no effect, 100 complete control), visual, 12 to 14 days
# [7] = 125 g ai/ha, 0 = no effect, 100 = complete control
# [8] = visual rating, 0 = no effect, 100 = complete control
# [9] = Postemergence, 500 g ai/ha, 0 to 100 scale, 0 no effect, 100 complete control
# [10] = Postemergence, 2000 g ai/ha, 0 to 100 scale, 0 no effect, 100 complete control
# [11] = Preemergence, 2000 g ai/ha, visual rating, 0 to 100 scale (0 no effect, 100 complete control)
# [12] = preemergence, 500 g ai/ha, visual injury, 0 to 100 scale (0 no effect, 100 complete control)
# [13] = Postemergence, 250 g ai/ha, scale 0 to 100, 0 no effect, 100 complete control
# [14] = postemergence, 125 g ai/ha, scale 0 to 100
# [15] = postemergence, 62 g ai/ha, scale 0 to 100
# [16] = Postemergence, 500 g ai/ha, scale 0 to 100
structure (smiles),measurement,setting,value
CCc1nn(C(C)C)nc1C(=O)Nc1cccc(C(=S)N(C)C)c1 [Compound 409],"Plant response rating, Johnsongrass",johnsongrass; [3],35
same,"Plant response rating (0 = no effect, 100 = complete control), Johnsongrass","johnsongrass; 125 g ai/ha, preemergence",80
same,"Plant response rating, Johnsongrass",johnsongrass; [4],95
same,"Plant response rating, Johnsongrass",johnsongrass; [5],95
same,"Plant response rating, Crabgrass, Large",large crabgrass [1]; [3],85
same,"Plant response rating (0 = no effect, 100 = complete control), Crabgrass, Large","large crabgrass [1]; 125 g ai/ha, preemergence",95
same,"Plant response rating, Crabgrass, Large",large crabgrass [1]; [4],95
same,"Plant response rating, Crabgrass, Large",large crabgrass [1]; [5],95
same,"Plant response rating, Nightshade","eastern black nightshade; 62 g ai/ha, scale 0 to 100",45
same,"Plant response rating (0 = no effect, 100 = complete control), Nightshade",eastern black nightshade,85
same,"Plant response rating, Nightshade",eastern black nightshade; [6],95
same,"Plant response rating, Corn",corn; [3],0
same,"Plant response rating (0 = no effect, 100 = complete control), Corn","corn; 125 g ai/ha, preemergence",5
same,"Plant response rating, Corn",corn; [4],75
same,"Plant response rating, Corn",corn; [5],80
CCNC(=S)c1cccc(NC(=O)c2nn(C(C)(C)C)nc2C)c1 [Compound 420],"Plant response rating, Johnsongrass",johnsongrass; [3],100
same,"Plant response rating (0 = no effect, 100 = complete control), Johnsongrass","johnsongrass; 125 g ai/ha, preemergence",100
same,"Plant response rating, Johnsongrass",johnsongrass; [4],100
same,"Plant response rating, Johnsongrass",johnsongrass; [5],100
same,"Plant response rating, Crabgrass, Large",large crabgrass [1]; [3],100
same,"Plant response rating (0 = no effect, 100 = complete control), Crabgrass, Large","large crabgrass [1]; 125 g ai/ha, preemergence",100
same,"Plant response rating, Crabgrass, Large",large crabgrass [1]; [4],100
same,"Plant response rating, Crabgrass, Large",large crabgrass [1]; [5],100
same,"Plant response rating, Nightshade","eastern black nightshade; 62 g ai/ha, scale 0 to 100",80
same,"Plant response rating (0 = no effect, 100 = complete control), Nightshade",eastern black nightshade,90
same,"Plant response rating, Nightshade",eastern black nightshade; [6],100
same,"Plant response rating, Corn",corn; [3],0
same,"Plant response rating (0 = no effect, 100 = complete control), Corn","corn; 125 g ai/ha, preemergence",0
same,"Plant response rating, Corn",corn; [4],10
same,"Plant response rating, Corn",corn; [5],40
CCc1nc(C(C)(C)C)sc1C(=O)Nc1cccc(C(=O)NC(C)(C)C)n1 [Compound 216],Rice plant response rating (0 to 100 scale),rice; [7],0
same,"Plant response rating, Rice",rice; [8],70
same,"Crabgrass, Large plant response rating",large crabgrass [2]; [9],20
same,"Plant response rating, Crabgrass, Large",large crabgrass [2]; [10],20
same,"Crabgrass, Large plant response rating",large crabgrass [2]; [11],55
same,"Crabgrass, Large plant response rating",large crabgrass [2]; [12],15
same,Pigweed plant response rating,redroot pigweed; [9],30
same,"Plant response rating, Pigweed",redroot pigweed; [10],55
same,Pigweed plant response rating,redroot pigweed; [11],70
same,Pigweed plant response rating,redroot pigweed; [12],0
CCOC(=O)c1cccc(NC(=O)c2cc(C3(C)CC3)nn2CC)c1 [Compound 295],Rice plant response rating (0 to 100 scale),rice; [7],10
same,"Plant response rating, Rice",rice; [8],20
same,"Plant response rating, Johnsongrass",johnsongrass; [13],5
same,"Plant response rating, Johnsongrass",johnsongrass; [14],5
same,"Plant response rating, Johnsongrass",johnsongrass; [15],5
same,"Plant response rating, Crabgrass, Large",large crabgrass [1]; [13],35
same,"Plant response rating, Crabgrass, Large",large crabgrass [1]; [14],30
same,"Plant response rating, Corn",corn; [13],15
same,"Plant response rating, Corn",corn; [14],10
same,"Plant response rating, Corn",corn; [15],5
"CCn1nc(C(C)(C)C)cc1C(=O)Nc1cccc(C(=O)OCCF)c1 [Compound 82, 2-fluoroethyl 3-[[[3-(1,1-dimethylethyl)-1-ethyl-1H-pyrazol-5-yl]-carbonyl]amino]benzoate]",plant injury at 125 g/ha,"rice; Oryza sativa, pre-emergence, 336 h, 125 g ai/ha, 0 to 100 scale, 0 is no effect, 100 is complete control, read-out: Plant response rating, Rice",0%
same,pest or weed control at 500 g/ha,"large crabgrass [2]; post-emergence, Postemergence, 500 g ai/ha, 0 to 100 scale, 0 no effect, 100 complete control, read-out: Plant response rating, Crabgrass, Large",20%
same,pest or weed control at 2000 g/ha,"large crabgrass [2]; post-emergence, Postemergence, 2000 g ai/ha, 0 to 100 scale, 0 no effect, 100 complete control, read-out: Plant response rating, Crabgrass, Large",30%
same,pest or weed control at 500 g/ha,"large crabgrass [2]; pre-emergence, Preemergence, 500 g ai/ha, visual rating, 0 to 100 scale (0 no effect, 100 complete control), read-out: Crabgrass, Large plant response rating",0%
same,pest or weed control at 2000 g/ha,"large crabgrass [2]; pre-emergence, Preemergence, 2000 g ai/ha, 0 to 100 scale, 0 no effect, 100 complete control, read-out: Crabgrass, Large plant response rating",0%
same,Johnsongrass plant response rating,johnsongrass; [16],10
same,pest or weed control at 250 g/ha,"johnsongrass; Sorghum halepense, post-emergence, Postemergence, 250 g ai/ha, scale 0 to 100, 0 no effect, 100 complete control, read-out: Plant response rating, Johnsongrass",5%
same,pest or weed control at 125 g/ha,"johnsongrass; Sorghum halepense, post-emergence, postemergence, 125 g ai/ha, scale 0 to 100, read-out: Plant response rating, Johnsongrass",0%
same,pest or weed control at 62 g/ha,"johnsongrass; Sorghum halepense, post-emergence, postemergence, 62 g ai/ha, scale 0 to 100, read-out: Plant response rating, Johnsongrass",0%
same,pest or weed control at 250 g/ha,"large crabgrass [1]; Digitaria sanguinalis, post-emergence, 312 h, Postemergence, 250 g ai/ha, scale 0 to 100, 0 no effect, 100 complete control, read-out: Plant response rating, Crabgrass, Large",0%
same,pest or weed control at 125 g/ha,"large crabgrass [1]; Digitaria sanguinalis, post-emergence, 312 h, postemergence, 125 g ai/ha, scale 0 to 100, read-out: Plant response rating, Crabgrass, Large",0%
same,pest or weed control at 62 g/ha,"large crabgrass [1]; Digitaria sanguinalis, post-emergence, 312 h, postemergence, 62 g ai/ha, scale 0 to 100, read-out: Plant response rating, Crabgrass, Large",0%
same,"Crabgrass, Large plant response rating",large crabgrass [1]; [16],60
same,pest or weed control at 500 g/ha,"redroot pigweed; post-emergence, Postemergence, 500 g ai/ha, 0 to 100 scale, 0 no effect, 100 complete control, read-out: Plant response rating, Pigweed",50%
same,pest or weed control at 2000 g/ha,"redroot pigweed; post-emergence, Postemergence, 2000 g ai/ha, 0 to 100 scale, 0 no effect, 100 complete control, read-out: Plant response rating, Pigweed",50%
same,pest or weed control at 500 g/ha,"redroot pigweed; pre-emergence, Preemergence, 500 g ai/ha, visual rating, 0 to 100 scale (0 no effect, 100 complete control), read-out: Pigweed plant response rating",5%
same,pest or weed control at 2000 g/ha,"redroot pigweed; pre-emergence, Preemergence, 2000 g ai/ha, 0 to 100 scale, 0 no effect, 100 complete control, read-out: Pigweed plant response rating",35%
same,Corn plant response rating,corn; [16],45
same,"Corn plant response rating (crop injury, 0 = no effect, 100 = complete kill) at 250 g/ha","corn; Zea mays, post-emergence, 312 h, Postemergence, 250 g ai/ha, scale 0 to 100, 0 no effect, 100 complete control",10%
same,"Corn plant response rating (crop injury, 0 = no effect, 100 = complete kill) at 125 g/ha","corn; Zea mays, post-emergence, 312 h, postemergence, 125 g ai/ha, scale 0 to 100",10%
same,"Corn plant response rating (crop injury, 0 = no effect, 100 = complete kill) at 62 g/ha","corn; Zea mays, post-emergence, 312 h, postemergence, 62 g ai/ha, scale 0 to 100",10%
CCOc1cccc(NC(=O)c2cc(C(C)(C)C)nn2CC)c1 [Compound 136],"Plant response rating, Rice","rice; visual rating 0-100, 0 no effect, 100 complete control",50
same,"Crabgrass, Large plant response rating",large crabgrass [2]; [9],35
same,"Plant response rating, Crabgrass, Large",large crabgrass [2]; [10],70
same,"Crabgrass, Large plant response rating","large crabgrass [2]; Preemergence, 500 g ai/ha, visual rating, 0 to 100 scale (0 no effect, 100 complete control)",85
same,"Crabgrass, Large plant response rating",large crabgrass [2]; [11],90
same,Pigweed plant response rating,redroot pigweed; [9],65
same,"Plant response rating, Pigweed",redroot pigweed; [10],85
same,Pigweed plant response rating,redroot pigweed; [11],80
same,Pigweed plant response rating,redroot pigweed; [12],70
CCNC(=O)c1ccc(F)c(NC(=O)c2cc(C(C)(C)C)nn2CC)n1 [Compound 278],Rice plant response rating (0 to 100 scale),rice; [7],30
same,"Plant response rating, Rice",rice; [8],80
same,"Crabgrass, Large plant response rating",large crabgrass [2]; [9],10
same,"Plant response rating, Crabgrass, Large",large crabgrass [2]; [10],5
same,"Crabgrass, Large plant response rating",large crabgrass [2]; [11],60
same,"Crabgrass, Large plant response rating",large crabgrass [2]; [12],25
same,Pigweed plant response rating,redroot pigweed; [9],60
same,"Plant response rating, Pigweed",redroot pigweed; [10],70
same,Pigweed plant response rating,redroot pigweed; [11],95
same,Pigweed plant response rating,redroot pigweed; [12],85
